Assay results taken from the supplement of paper PMC10307832.

Legend:
Experiment in all cases: relative viability (nuclei count vs DMSO), 5 days (fraction); higher = more cells survive
[1] = compound: CN(C)CC1=CC(=CC=C1)N=C(C2=CC=CC=C2)C3=C(NC4=C3C=CC(=C4)C(=O)N(C)C)O + CC(=O)Nc1cccc(-n2c(=O)n(C3CC3)c(=O)c3c(Nc4ccc(I)cc4F)n(C)c(=O)c(C)c32)c1 [Trametinib] (partner 0.02 µM)
Summary of the method: (§1)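 One day after seeding in 1536-well plates, lung cancer cell lines were dosed by pin tool. Dosing was either single-drug or a fixed anchor-drug dose plus five library-drug doses (not always all listed) in √10 steps. After 5 days, nuclei were stained in one fix-and-stain step and counted on 4× images, and relative viability is the nuclei count of treated wells over that of vehicle wells, given as the median of duplicate plates.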

[2] = compound: CN(C)CC1=CC(=CC=C1)N=C(C2=CC=CC=C2)C3=C(NC4=C3C=CC(=C4)C(=O)N(C)C)O + CS(=O)(=O)CCNCc1ccc(-c2ccc3ncnc(Nc4ccc(OCc5cccc(F)c5)c(Cl)c4)c3c2)o1 [Lapatinib] (partner 2 µM)
Summary of the method: as §1

[3] = compound: CN(C)CC1=CC(=CC=C1)N=C(C2=CC=CC=C2)C3=C(NC4=C3C=CC(=C4)C(=O)N(C)C)O + O=C(c1cc(Cc2n[nH]c(=O)c3ccccc23)ccc1F)N1CCN(C(=O)C2CC2)CC1 [Olaparib] (partner 8 µM)
Summary of the method: as §1

[4] = compound: CN(C)CC1=CC(=CC=C1)N=C(C2=CC=CC=C2)C3=C(NC4=C3C=CC(=C4)C(=O)N(C)C)O + N=C(N)NC(=N)NCCc1ccccc1 [Phenformin] (partner 250 µM)
Summary of the method: as §1

| Cell Line | relative viability ([1]; first compound 0.08 µM) | relative viability ([1]; first compound 0.253 µM) | relative viability ([1]; first compound 0.8 µM) | relative viability ([1]; first compound 2.53 µM) | relative viability ([1]; first compound 8 µM) | relative viability ([2]; first compound 0.08 µM) | relative viability ([2]; first compound 0.253 µM) | relative viability ([2]; first compound 0.8 µM) | relative viability ([2]; first compound 2.53 µM) | relative viability ([2]; first compound 8 µM) | relative viability ([3]; first compound 0.08 µM) | relative viability ([3]; first compound 0.253 µM) | relative viability ([3]; first compound 0.8 µM) | relative viability ([3]; first compound 2.53 µM) | relative viability ([3]; first compound 8 µM) | relative viability ([4]; first compound 0.08 µM) | relative viability ([4]; first compound 0.253 µM) | relative viability ([4]; first compound 0.8 µM) | relative viability ([4]; first compound 2.53 µM) | relative viability ([4]; first compound 8 µM) |
| --- | --- | --- | --- | --- | --- | --- | --- | --- | --- | --- | --- | --- | --- | --- | --- | --- | --- | --- | --- | --- |
| LCLC-97TM1 | 0.231 | 0.222 | 0.2 | 0.191 | 0.176 | 1.14 | 1.02 | 1.13 | 1.37 | 0.574 | 0.485 | 0.392 | 0.442 | 0.391 | 0.433 | 0.466 | 0.408 | 0.475 | 0.438 | 0.422 |
| NCI-H1793 | 0.426 | 0.418 | 0.433 | 0.381 | 0.445 | 0.79 | 0.665 | 0.569 | 0.823 | 0.891 | 0.924 | 0.774 | 0.678 | 0.95 | 0.758 | 0.405 | 0.394 |  | 0.324 | 0.284 |
| HOP-62 | 0.363 | 0.361 | 0.391 | 0.362 | 0.339 | 1.03 | 1.11 | 1.14 | 1.05 | 0.946 | 0.373 | 0.327 | 0.361 | 0.251 | 0.504 | 0.7 | 0.64 | 0.677 | 0.601 | 0.629 |
| HCC-827 | 0.541 | 0.491 | 0.429 | 0.495 | 0.49 | 0.218 | 0.191 | 0.197 | 0.191 | 0.191 | 0.615 | 0.65 | 0.67 | 0.623 | 0.685 | 0.374 | 0.404 | 0.323 | 0.396 | 0.356 |
| NCI-H2126 | 0.6 | 0.59 | 0.484 | 0.602 | 0.55 | 0.76 | 0.762 | 0.73 | 0.765 | 0.762 | 0.885 | 0.87 | 0.907 | 0.912 | 0.957 | 0.522 | 0.553 | 0.542 | 0.511 | 0.557 |
| RERF-LC-KJ | 0.911 | 0.837 | 0.844 | 0.907 | 0.846 | 0.917 | 0.882 | 0.834 | 0.793 | 0.859 | 0.971 | 0.906 | 0.882 | 0.9 | 0.904 | 0.434 | 0.424 | 0.412 | 0.409 | 0.398 |
| NCI-H2342 | 0.894 | 0.751 | 0.727 | 0.906 | 1.23 |  |  |  |  |  | 0.453 | 0.454 | 0.506 | 0.476 | 0.561 | 0.572 | 0.685 | 0.574 | 0.647 | 0.668 |
| A-427 | 0.752 | 0.787 | 0.776 | 0.686 | 0.663 | 1.03 | 1.06 | 1.09 | 1.03 | 1.1 | 0.716 | 0.711 | 0.754 | 0.707 | 0.711 | 0.378 | 0.385 | 0.308 | 0.257 | 0.266 |
| ABC-1 |  |  |  |  |  | 1.19 | 1.13 | 1.02 | 0.827 | 0.938 | 0.91 | 0.907 | 0.952 | 0.635 | 0.756 | 0.205 | 0.277 | 0.231 | 0.207 | 0.243 |
| Calu-6 |  |  |  |  |  | 1.13 | 1.01 | 1.02 | 1.07 | 1.03 | 0.558 | 0.549 | 0.571 | 0.565 | 0.63 |  |  |  |  |  |
| IA-LM |  |  |  |  |  | 0.781 | 0.916 | 0.872 | 0.948 | 1.07 | 0.941 | 0.793 | 1.02 | 0.957 | 0.962 |  |  |  |  |  |
| EBC-1 |  |  |  |  |  | 0.223 | 0.248 | 0.227 | 0.198 | 0.225 | 0.785 | 0.732 | 0.772 | 0.744 | 0.845 |  |  |  |  |  |
| LCLC-103H | 0.707 | 0.623 | 0.642 | 0.675 | 0.619 |  |  |  |  |  | 0.751 | 0.782 | 0.773 | 0.775 | 0.749 | 0.347 | 0.368 | 0.304 | 0.337 | 0.291 |
| NCI-H441 | 0.495 | 0.508 | 0.354 | 0.444 | 0.462 |  |  |  |  |  | 0.728 | 0.588 | 0.627 | 0.461 | 0.499 | 0.828 | 0.816 | 0.784 | 0.878 | 0.886 |
| ChaGo-K-1 | 0.857 | 0.89 | 0.882 | 0.835 | 0.808 |  |  |  |  |  | 0.386 | 0.458 | 0.41 | 0.355 | 0.415 | 0.495 | 0.507 | 0.479 | 0.436 | 0.433 |
| NCI-H1563 |  |  |  |  |  | 1.04 | 0.894 | 0.815 | 0.683 | 0.817 |  |  |  |  |  | 0.641 | 0.7 | 0.654 | 0.648 | 0.658 |
| A549 |  |  |  |  |  | 0.962 | 1.01 | 1.02 | 0.945 | 0.934 | 0.294 | 0.372 | 0.401 | 0.148 | 0.406 | 0.202 | 0.157 | 0.124 | 0.0946 | 0.16 |
